# Assays:
# Type in all cases: biochemical
# [1] = target: T1, recombinant human 17β-HSD1 (Homo sapiens, UniProt P14061); assay: Inhibition of recombinant human 17β-HSD1; settings: inhibitor 100 nM; 30 nM estrone, 1 mM NADPH, 30 min RT
# T1 construct: made in house; host or cells: Sd9 (Sf9) insect cells, baculovirus (Bac to Bac Expression System)
# T1 sequence (P14061 1-328): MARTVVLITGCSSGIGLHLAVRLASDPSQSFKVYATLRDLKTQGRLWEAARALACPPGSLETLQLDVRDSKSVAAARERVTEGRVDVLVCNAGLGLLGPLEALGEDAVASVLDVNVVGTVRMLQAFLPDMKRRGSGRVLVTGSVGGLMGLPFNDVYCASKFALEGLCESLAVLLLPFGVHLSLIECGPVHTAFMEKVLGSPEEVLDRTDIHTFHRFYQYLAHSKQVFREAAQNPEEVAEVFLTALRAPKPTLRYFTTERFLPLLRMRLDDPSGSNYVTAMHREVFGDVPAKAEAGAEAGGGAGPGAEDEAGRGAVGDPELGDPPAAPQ
# Protocol: 17β-HSD1 production and isolation: Recombinant baculovirus was generated by the “Bac to Bac Expression System” (Invitrogen). Recombinant bacmid was transfected to Sd9 insect cells using “Cellfectin Reagent” (Invitrogen). 60 h later cells were harvested; the microsomal fraction was isolated as described by Puranen, T. J., Poutanen, M. H., Peltoketo, H. E., Vihko, P. T. and Vihko, R. K. (1994) Site-directed mutagenesis of the putative active site of human 17 β-hydroxysteroid dehydrogenase type 1. Biochem. J. 304: 289-293. Aliquots were stored frozen until determination of enzymatic activity.
# Assay—Inhibition of recombinant human 17β-HSD1: Recombinant protein (1 μg/ml) was incubated in 20 mM KH2PO4 pH 7.4 with 30 nM estrone (including 800 000 cpm/ml of ^3H-estrone) and 1 mM NADPH for 30 min at RT, in the presence of the potential inhibitor at concentrations 1 μM or 0.1 μM. Inhibitor stock solutions were prepared in DMSO. Final concentration of DMSO was adjusted to 1% in all samples. The enzyme reaction was stopped by addition of 10% trichloroacetic acid (final concentration). Samples were centrifuged in a microtiter plate at 4000 rpm for 10 min. Supernatants were applied to reverse phase HPLC on a Waters Symmetry C18 column, equipped with a Waters Sentry Guard column. Isocratic HPLC runs were performed at RT at a flow rate of 1 ml/min in acetonitrile:water 48:52 as running solvent. Radioactivity was monitored in the eluate by a Scintillation Analyzer. Total radioactivity for estrone and estradiol were determined in each sample and percent conversion of estrone to estradiol was calculated according to the following formula:
# (§1) [formula] Percent inhibition was calculated flowingly: % inhibition=100−% conversion
# [2] = target: T2, recombinant human 17β-HSD2 (Homo sapiens, UniProt P37059); assay: Inhibition of recombinant human 17β-HSD2; settings: inhibitor 1 μM; 50 nM estradiol, 1 mM NADH, 30 min RT
# T2 construct: made in house; host or cells: Sd9 (Sf9) insect cells, baculovirus (Bac to Bac Expression System)
# T2 sequence (P37059 1-387): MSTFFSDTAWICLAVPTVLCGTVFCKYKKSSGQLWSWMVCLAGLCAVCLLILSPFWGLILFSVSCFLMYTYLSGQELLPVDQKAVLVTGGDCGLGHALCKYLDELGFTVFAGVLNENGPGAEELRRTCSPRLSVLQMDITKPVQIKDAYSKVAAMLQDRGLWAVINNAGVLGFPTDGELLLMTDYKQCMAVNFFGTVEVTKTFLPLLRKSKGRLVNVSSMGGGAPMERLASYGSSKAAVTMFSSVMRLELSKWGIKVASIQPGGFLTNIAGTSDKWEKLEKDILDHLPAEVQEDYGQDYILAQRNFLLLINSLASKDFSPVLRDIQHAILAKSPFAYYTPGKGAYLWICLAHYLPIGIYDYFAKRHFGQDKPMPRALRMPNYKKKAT
# Protocol: 17β-HSD2 production and isolation: Similarly to 17β-HSD1 the Recombinant baculovirus was generated by the “Bac to Bac Expression System” (Invitrogen). Recombinant bacmid was transfected to Sd9 insect cells using “Cellfectin Reagent” (Invitrogen). 60 h later cells were harvested and supernatant were fractionated by the following protocol: • cells were dissolved into 40 ml of A-buffer (40 mM TRIS, pH 8.0, 20% glycerol, 20 μM NAD, 0.4 mM PMSF, 150 mM NaCl, 0.5% dodecyl-β-maltoside+protease inhibitor cocktail) • cells were sonicated • lysate was incubated on ice for 15 min • lysate was centrifuged 5000 rpm 15 min, +4° C. • centrifugation of the supernatant 180 000 g 30 min, +4° C. • pellet was dissolved into 8 ml of A-buffer • not resuspended material was removed by centrifugation 5000 rpm min, +4° C. • the clear supernatant was divided into 100 μl aliquots and were stored frozen until determination of enzymatic activity.
# The amount of 17β-HSD2 was analysed by immunoblotting and total protein concentration of each extract batch was determined.
# Assay—Inhibition of recombinant human 17β-HSD2: Recombinant protein (4 μg/ml) was incubated in 20 mM KH2PO4 pH 8.5 with 50 nM estradiol (including 800 000 cpm/ml of ^3H-estradiol) and 1 mM NADH for 30 min at RT, in the presence of the potential inhibitor at concentrations 1 μM or 0.1 μM. Inhibitor stock solutions were prepared in DMSO. Final concentration of DMSO was adjusted to 1% in all samples. The enzyme reaction was stopped by addition of 10% trichloroacetic acid (final concentration). Samples were centrifuged in a microtiter plate at 4000 rpm for 10 min. Supernatants were applied to reverse phase HPLC on a Waters Symmetry C18 column, equipped with a Waters Sentry Guard column. Isocratic HPLC runs were performed at RT at a flow rate of 1 ml/min in acetonitrile:water 48:52 as running solvent. Radioactivity was monitored in the eluate by a Scintillation Analyzer. Total radioactivity for estrone and estradiol were determined in each sample and percent conversion of estradiol to estrone was calculated according to the following formula:
# as §1
# [3] = system: HSD1 enzyme that is expressed in rabbit placenta tissue; assay: Inhibition of E1 to E2 conversion in rabbit placenta tissue homogenate; settings: inhibitor 100 nM, 30 nM estrone, 30 min
# Protocol: The assay is based on an enzymatic reaction where HSD1 enzyme that is expressed in rabbit placenta tissue converts its natural substance estrone (E1) to estradiol (E2) in the presence of a co-factor β-NADPH.
# Homogenization of rabbit placenta tissue: Weight a piece of the frozen tissue into a Precellys ck28 bead tube. Add buffer solution (20 mM KH2PO4 with 1 mM EDTA, pH 7,4) in 1:2 ratio (e.g. 300 mg of tissue:600 μl reaction buffer solution). Insert the bead tubes to homogenizer and homogenize 2×30 s. 6000 rpm. Centrifugated 5 min., 2600 rpm at +4° C. and collect supernatant. Aliquots of homogenate are stored in −80° C.
# Assay—Inhibition of E1 to E2 conversion in rabbit placenta tissue: The reaction takes place in a buffer solution (20 mM KH2PO4 with 1 mM EDTA, pH 7,4), including appropriate amount of rabbit placenta homogenate, co-factor (1 mM β-NADPH), Substrate (30 nM estrone), labelled substrate as tracer (5 nM [^3H]-estrone). During a 30-minute incubation part of the estrone is converted to estradiol. The reaction is stopped by lowering the pH to 1 with 10% trichloro acetic acid (TCA). The substrate and conversion products are analyzed by HPLC and a Scintillation counter analyzer. Total radioactivity for estrone and estradiol were determined in each sample and percent conversion of estrone to estradiol was calculated according to the following formula:
# Percent inhibition was calculated flowingly: % inhibition=100−% conversion.
SMILES,inhibition at 0.1 µM [1],inhibition at 1 µM [2],Rabbit placenta inhibition % @100 nM [3]
"COc1ccc(NC(=O)CC[C@@H]2C/C(=N\O)[C@@]3(C)CCC4c5ccc(F)cc5CCC4C23)nc1 (stereo partly drawn) [Compound 28, 3-((13S,15R,E)-3-fluoro-17-(hydroxyimino)-13-methyl-7,8,9,11,12,13,14,15,16,17-decahydro-6H-cyclopenta[a]phenanthren-15-yl)-N-(5-methoxypyridin-2-yl)propanamide]",74%,7%,48%
"COc1ccc(NC(=O)CC[C@@H]2C/C(=N\O)[C@@]3(C)CCC4c5ccc(F)cc5CCC4C23)nn1 (stereo partly drawn) [Compound 30, 3-((13S,15R,E)-3-fluoro-17-(hydroxyimino)-13-methyl-7,8,9,11,12,13,14,15,16,17-decahydro-6H-cyclopenta[a]phenanthren-15-yl)-N-(6-methoxypyridazin-3-yl)propanamide]",40%,3%,79%
"Cc1ccc(NC(=O)CC[C@@H]2C/C(=N\O)[C@@]3(C)CCC4c5ccc(F)cc5CCC4C23)nn1 (stereo partly drawn) [Compound 32, 3-((13S,15R,E)-3-fluoro-17-(hydroxyimino)-13-methyl-7,8,9,11,12,13,14,15,16,17-decahydro-6H-cyclopenta[a]phenanthren-15-yl)-N-(6-methylpyridazin-3-yl)propanamide]",35%,9%,55%
"CN(C(=O)CC[C@@H]1C/C(=N\O)[C@@]2(C)CCC3c4ccc(F)cc4CCC3C12)C1COC1 (stereo partly drawn) [Compound 36, 3-((13S,15R,E)-3-fluoro-17-(hydroxyimino)-13-methyl-7,8,9,11,12,13,14,15,16,17-decahydro-6H-cyclopenta[a]phenanthren-15-yl)-N-methyl-N-(oxetan-3-yl)propanamide]",33%,10%,12%
"CCN(CC)C(=O)CC[C@@H]1C/C(=N\O)[C@@]2(C)CCC3c4ccc(F)cc4CCC3C12 (stereo partly drawn) [Compound 40, N,N-diethyl-3-((13S,15R,E)-3-fluoro-17-(hydroxyimino)-13-methyl-7,8,9,11,12,13,14,15,16,17-decahydro-6H-cyclopenta[a]phenanthren-15-yl)propanamide]",46%,6%,6%
"C[C@]12CCC3c4ccc(Cl)cc4CCC3C1[C@H](CCC(=O)Nc1cccnn1)C/C2=N\O (stereo partly drawn) [Compound 44, 3-((13S,15R,E)-3-chloro-17-(hydroxyimino)-13-methyl-7,8,9,11,12,13,14,15,16,17-decahydro-6H-cyclopenta[a]phenanthren-15-yl)-N-(pyridazine-3-yl)propanamide]",20%,2%,11%
"C[C@]12CCC3c4ccc(Cl)cc4CCC3C1[C@H](CCC(=O)NC1=NCCS1)C/C2=N\O (stereo partly drawn) [Compound 46, 3-((13S,15R,E)-3-chloro-17-(hydroxyimino)-13-methyl-7,8,9,11,12,13,14,15,16,17-decahydro-6H-cyclopenta[a]phenanthren-15-yl)-N-(4,5-dihydrothiazol-2-yl)propanamide]",55%,0%,50%
"C[C@]12CCC3c4ccc(Cl)cc4CCC3C1[C@H](CCC(=O)N1CCC3(CCOCC3)C1)C/C2=N\O (stereo partly drawn) [Compound 48, 3-((13S,15R,E)-3-chloro-17-(hydroxyimino)-13-methyl-7,8,9,11,12,13,14,15,16,17-decahydro-6H-cyclopenta[a]phenanthren-15-yl)-1-(8-oxa-2-azaspiro[4.5]decan-2-yl)propan-1-one]",30%,-2%,1%
